Source: patent publication US20220033364A1, “INSECTICIDAL COMPOUNDS” (SYNGENTA CROP PROTECTION AG, priority 2018, published 2022)

What was measured:
Assay type in all cases: in vivo
[1] = tested on: Euschistus heros; assay: Euschistus heros (neotropical brown stink bug) soybean leaf spray test; conditions: 120 h, spray on soybean leaves, N2 nymphs, 5 days after infestation, read-out: effect in at least one of the two categories (mortality or growth inhibition)
Protocol: Soybean leaves on agar in 24-well microtiter plates were sprayed with aqueous test solutions prepared from 10′000 ppm DMSO stock solutions. After drying the leaves were infested with N2 nymphs. The samples were assessed for mortality and growth inhibition in comparison to untreated samples 5 days after infestation.

[2] = tested on: Diabrotica balteata; assay: Diabrotica balteata (corn root worm) maize sprout spray test; conditions: 96 h, spray on maize sprouts, L2 larvae, 4 days after infestation, read-out: effect in at least one of the two categories (mortality or growth inhibition)
Protocol: Maize sprouts placed onto an agar layer in 24-well microtiter plates were treated with aqueous test solutions prepared from 10′000 ppm DMSO stock solutions by spraying. After drying, the plates were infested with L2 larvae (6 to 10 per well). The samples were assessed for mortality and growth inhibition in comparison to untreated samples 4 days after infestation.

[3] = tested on: Myzus persicae; assay: Myzus persicae (green peach aphid) feeding/contact activity; conditions: foliar, 144 h, spray on sunflower leaf discs, mixed ages, 6 days after infestation
Protocol: (§1) Sunflower leaf discs were placed onto agar in a 24-well microtiter plate and sprayed with aqueous test solutions prepared from 10′000 ppm DMSO stock solutions. After drying, the leaf discs were infested with an aphid population of mixed ages. The samples were assessed for mortality 6 days after infestation.

[4] = tested on: Thrips tabaci; assay: Thrips tabaci (onion thrips) feeding/contact activity; conditions: foliar, 144 h, spray on sunflower leaf discs, mixed ages, 6 days after infestation
Protocol: as §1, with “on” for “onto”, “in” for “in a”, “plates” for “plate”, “drying” for “drying,”, “a thrips” for “an aphid”

[5] = tested on: Tetranychus urticae; assay: Tetranychus urticae (two-spotted spider mite) feeding/contact activity; conditions: foliar, 192 h, spray on bean leaf discs, mixed population (mobile stages), 8 days after infestation
Protocol: Bean leaf discs on agar in 24-well microtiter plates were sprayed with aqueous test solutions prepared from 10′000 ppm DMSO stock solutions. After drying the leaf discs were infested with a mite population of mixed ages. The samples were assessed for mortality on mixed population (mobile stages) 8 days after infestation.

[6] = tested on: Spodoptera littoralis; assay: Spodoptera littoralis (Egyptian cotton leaf worm) cotton leaf disc test; conditions: foliar, 72 h, spray on cotton leaf discs, L1 larvae, 3 days after infestation, read-out: control (mortality, anti-feeding effect or growth inhibition)
Protocol: Cotton leaf discs were placed onto agar in 24-well microtiter plates and sprayed with aqueous test solutions prepared from 10′000 ppm DMSO stock solutions. After drying the leaf discs were infested with five L1 larvae. The samples were assessed for mortality, anti-feeding effect, and growth inhibition in comparison to untreated samples 3 days after infestation. Control of Spodoptera littoralis by a test sample is given when at least one of the categories mortality, anti-feedant effect, and growth inhibition is higher than the untreated sample.

[7] = tested on: Plutella xylostella; assay: Plutella xylostella (diamond back moth) artificial diet test, L2 larvae; conditions: 120 h, 5 days after infestation, read-out: effect in at least one of the two categories (mortality or growth inhibition)
Protocol: (§2) 24-well microtiter plates with artificial diet were treated with aqueous test solutions prepared from 10′000 ppm DMSO stock solutions by pipetting. After drying, the plates were infested with L2 larvae (10 to 15 per well). The samples were assessed for mortality and growth inhibition in comparison to untreated samples 5 days after infestation.

[8] = tested on: Plutella xylostella; assay: Plutella xylostella (diamond back moth) artificial diet test, eggs; conditions: 192 h, 8 days after infestation, read-out: effect in at least one of the two categories (mortality or growth inhibition)
Protocol: as §2, with “drying, Plutella eggs were pipetted through a plastic stencil onto a gel blotting paper and” for “drying,”, “plate was closed” for “plates were infested”, “it.” for “L2 larvae (10 to 15 per well).”, “8” for “5”

Cc1cc(C2=NO[C@@](c3cc(Cl)c(F)c(Cl)c3)(C(F)(F)F)C2)ccc1C(=O)N(C(=O)C1CC1)[C@H]1CON(S(=O)(=O)C(F)F)C1 [Compound A1, N-(cyclopropanecarbonyl)-4-[(5S)-5-(3,5-dichloro-4-fluoro-phenyl)-5-(trifluoromethyl)-4H-isoxazol-3-yl]-N-[(4R)-2-(difluoromethylsulfonyl)isoxazolidin-4-yl]-2-methyl-benzamide]
≥ 80%: percent effect (mortality or growth inhibition) at 200 ppm [1] | percent effect (mortality or growth inhibition) at 200 ppm [2] | mortality at 200 ppm [3] | mortality at 200 ppm [4] | mortality at 200 ppm [5] | percent control (mortality, anti-feedant effect or growth inhibition) at 200 ppm [6] | percent effect (mortality or growth inhibition) at 200 ppm [7]

Cc1cc(C2=NO[C@@](c3cc(Cl)c(F)c(Cl)c3)(C(F)(F)F)C2)ccc1C(=O)N(COC1CC1)[C@H]1CON(S(=O)(=O)C(F)F)C1 [Compound A2, N-(cyclopropoxymethyl)-4-[(5S)-5-(3,5-dichloro-4-fluoro-phenyl)-5-(trifluoromethyl)-4H-isoxazol-3-yl]-N-[(4R)-2-(difluoromethylsulfonyl)isoxazolidin-4-yl]-2-methyl-benzamide]
≥ 80%: percent effect (mortality or growth inhibition) at 200 ppm [1] | percent effect (mortality or growth inhibition) at 200 ppm [8] | percent control (mortality, anti-feedant effect or growth inhibition) at 200 ppm [6]
